The results in this text go back to patent publication US8618289B2 (Ambit Biosciences Corporation, priority 2008, dated 2013).

One experiment deals with A375 cells. In words: cells. The conditions noted are these: Homo sapiens, A-375, read-out: A375 Viability EC50.
Experiment [1] relates to MEK1 phosphorylation in the A375 human melanoma cell line. As to the kind of experiment: cells. The conditions noted are these: A-375, read-out: pMEK IC50.
Procedure: A375 cells (from American Type Culture Collection) were plated at 50,000 cells per well in DMEM (Mediatech) with 10% fetal bovine serum (Omega Scientific) into a 96 well plate and incubated overnight in a 37° C. incubator with 10% CO2. The cells were then washed with PBS and the medium replaced with 0.5% FBS for incubation overnight. […] The cells were incubated with compound or control for two hours at 37° C. The compound solution was aspirated off and the cells washed with cold PBS. […] The plate was centrifuged for 30 minutes to pellet out the cell debris. The cleared lysates were transferred to a 96-well Nunc plate and the ELISA protocol described by the manufacturer in Catalog #KHO0321 or KHO0291 was followed.
The target of experiment [2] is RAF kinases (Homo sapiens, UniProt P15056). In words: biochemical.
Sequence of RAF kinases (Homo sapiens, UniProt P15056) (P15056 whole entry): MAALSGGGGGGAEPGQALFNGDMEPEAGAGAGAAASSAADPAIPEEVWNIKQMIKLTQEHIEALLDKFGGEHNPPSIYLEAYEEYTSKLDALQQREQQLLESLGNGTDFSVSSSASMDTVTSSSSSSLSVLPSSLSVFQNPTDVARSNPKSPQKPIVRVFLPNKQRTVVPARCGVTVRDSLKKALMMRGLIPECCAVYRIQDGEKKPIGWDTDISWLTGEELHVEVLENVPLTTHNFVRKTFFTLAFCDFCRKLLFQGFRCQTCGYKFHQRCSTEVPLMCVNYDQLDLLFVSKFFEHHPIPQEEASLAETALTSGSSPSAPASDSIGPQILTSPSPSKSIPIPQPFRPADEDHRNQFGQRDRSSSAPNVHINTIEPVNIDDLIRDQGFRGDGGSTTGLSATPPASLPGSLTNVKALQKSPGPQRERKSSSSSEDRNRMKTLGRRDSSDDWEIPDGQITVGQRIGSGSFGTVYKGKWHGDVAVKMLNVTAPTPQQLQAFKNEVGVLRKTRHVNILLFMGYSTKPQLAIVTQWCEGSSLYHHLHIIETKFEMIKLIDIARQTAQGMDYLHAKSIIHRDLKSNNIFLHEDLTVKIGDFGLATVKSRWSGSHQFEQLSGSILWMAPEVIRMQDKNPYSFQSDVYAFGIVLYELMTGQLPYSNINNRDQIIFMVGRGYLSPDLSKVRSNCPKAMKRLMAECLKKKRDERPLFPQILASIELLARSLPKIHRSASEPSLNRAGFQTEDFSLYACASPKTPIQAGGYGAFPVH
Procedure: (§1) Competition binding assays used herein were developed, validated and performed as described in Fabian et al., Nature Biotechnology 2005, 23, 329-336. […] The liganded beads were blocked with excess biotin and washed with blocking buffer (SeaBlock (Pierce), 1% BSA, 0.05% Tween 20, 1 mM DTT) to remove unbound ligand and to reduce non-specific binding. […] Test compounds were prepared as 100× stocks in DMSO and rapidly diluted into the aqueous environment. DMSO was added to control assays lacking a test compound. Primary screen interactions were performed in polypropylene 384-well plates in a final volume of 34 μt, while Kd determinations were performed in polystyrene 96-well plates in a final volume of 135 pt. […] The kinase concentration in the eluates was measured by quantitative PCR. Each kinase was tested individually against each compound. Kds were determined using eleven serial threefold dilutions. A selectivity score, which is a quantitative measure of selectivity of a compound against a panel of enzymes, may be calculated for a compound by dividing the number of enzymes for which a compound meets a set criteria, (for example, a binding constant of 100 nM or less), by the total number of enzymes tested. […] (Note, for those compounds tested in a larger kinase panel, as indicated by an asterisk (*) next to the S35 score, the divisor is 321 (i.e. the larger panel contains 321 distinct kinases, excluding mutant variants.)).
The target of experiment [3] is RAF kinases (Homo sapiens, UniProt P04049). In words: biochemical.
Sequence of RAF kinases (Homo sapiens, UniProt P04049) (P04049 whole entry): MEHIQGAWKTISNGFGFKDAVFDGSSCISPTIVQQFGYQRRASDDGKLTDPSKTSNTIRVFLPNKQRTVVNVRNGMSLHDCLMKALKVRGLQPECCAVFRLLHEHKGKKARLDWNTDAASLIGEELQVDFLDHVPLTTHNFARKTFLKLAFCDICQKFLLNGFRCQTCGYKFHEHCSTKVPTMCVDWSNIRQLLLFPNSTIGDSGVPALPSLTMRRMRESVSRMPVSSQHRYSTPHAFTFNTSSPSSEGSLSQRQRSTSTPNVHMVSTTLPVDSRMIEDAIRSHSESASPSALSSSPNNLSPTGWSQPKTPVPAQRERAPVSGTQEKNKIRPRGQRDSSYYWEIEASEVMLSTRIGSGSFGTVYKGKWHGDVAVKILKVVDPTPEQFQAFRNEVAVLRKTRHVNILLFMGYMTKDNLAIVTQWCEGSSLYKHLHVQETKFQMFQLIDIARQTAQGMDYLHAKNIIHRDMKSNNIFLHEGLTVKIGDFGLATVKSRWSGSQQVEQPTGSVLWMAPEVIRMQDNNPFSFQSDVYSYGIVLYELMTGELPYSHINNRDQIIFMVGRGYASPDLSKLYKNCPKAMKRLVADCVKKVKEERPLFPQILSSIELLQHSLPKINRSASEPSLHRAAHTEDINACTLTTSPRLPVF
Procedure: as §1

Where a name gives a salt, the structure may show the parent alone. A value given as a limit tells only on which side of the number the result lay.

For the compound `COCCOc1cc2ncnc(Sc3cccc(NC(=O)Nc4cc(C(C)(C)C)on4)c3)c2cc1OC` [Ex 52, 1-(5-tert-butylisoxazol-3-yl)-3-{3-[6-methoxy-7-(2-methoxyethoxy)quinazolin-4-ylthio]phenyl}urea hydrochloride], in the experiment with A375 cells, the EC50 was 500 to 1000 nM. The IC50 in experiment [1] was < 250 nM. Further, the equilibrium dissociation constant (Kd) on RAF kinases [2] and on RAF kinases [3] was 250 to 500 nM each time.
As to `COCCOc1cc2ncnc(Sc3cccc(NC(=O)Nc4cc(C(C)(C)C)on4)c3)c2cc1OCCOC` [Ex 53, 1-{3-[6,7-bis(2-methoxyethoxy)quinazolin-4-ylthio]phenyl}-3-(5-tert-butylisoxazol-3-yl)urea hydrochloride], the EC50 with A375 cells lay in the range of 500 to 1000 nM. The half-maximal inhibitory concentration (IC50) in experiment [1] is < 250 nM. For the same compound, the equilibrium dissociation constant (Kd) at RAF kinases [2] lay within 500 to 1000 nM; on RAF kinases [3], 250 to 500 nM.
For `CCOc1cc2c(Sc3cccc(NC(=O)Nc4cc(C(C)(C)C)on4)c3)ncnc2cc1OC` [Ex 56, 1-(5-tert-butylisoxazol-3-yl)-3-(3-(6-ethoxy-7-methoxyquinazolin-4-ylthio)phenyl)urea], the EC50 with A375 cells was < 250 nM. In addition, the half-inhibitory concentration (IC50) in experiment [1] was < 250 nM. The Kd at RAF kinases [2] lay within 500 to 1000 nM; at RAF kinases [3] it was 250 to 500 nM.
`COc1cc2ncnc(Sc3cccc(NC(=O)Nc4cc(C(C)(C)C)on4)c3)c2cc1OCCCN1CCCCC1` [Ex 57, 1-(5-tert-butylisoxazol-3-yl)-3-(3-(7-methoxy-6-(3-(piperidin-1-yl)propoxy)quinazolin-4-ylthio)phenyl) urea]: in the experiment with A375 cells, the EC50 is > 1000 nM. In experiment [1], the IC50 was < 250 nM. Besides, the Kd on RAF kinases [2] and on RAF kinases [3] was 500 to 1000 nM in each case.
Regarding `COc1cc2ncnc(Sc3cccc(NC(=O)Nc4cc(C(C)(C)C)on4)c3)c2cc1OCCCN1CCC(CO)CC1` [Ex 58, 1-(5-tert-butylisoxazol-3-yl)-3-(3-(6-(3-(4-(hydroxymethyl)piperidin-1-yl)propoxy)-7-methoxyquinazolin-4-ylthio)phenyl)urea], the EC50 in the experiment with A375 cells was > 1000 nM. Also, the IC50 in experiment [1] was < 250 nM. The results for the Kd at RAF kinases [2] and on RAF kinases [3] were 250 to 500 nM and 500 to 1000 nM, respectively.
Take `COc1cc2ncnc(Sc3cccc(NC(=O)Nc4cc(C(C)(C)C)on4)c3)c2cc1OCCCN1CCN(C)CC1` [Ex 59, 1-(5-tert-butylisoxazol-3-yl)-3-(3-(7-methoxy-6-(3-(4-methylpiperazin-1-yl)propoxy)quinazolin-4-ylthio)phenyl)urea]: in the experiment with A375 cells, the concentration for a half-maximal effect (EC50) was > 1000 nM. Also, in experiment [1], the half-maximal inhibitory concentration (IC50) is < 250 nM. Also, the Kd on RAF kinases [2] and on RAF kinases [3] was 250 to 500 nM in each case.
On to `COc1cc2ncnc(Sc3cccc(NC(=O)Nc4cc(C(C)(C)C)on4)c3)c2cc1OCCCN1CCN(S(C)(=O)=O)CC1` [Ex 60, 1-(5-tert-butylisoxazol-3-yl)-3-(3-(7-methoxy-6-(3-(4-(methylsulfonyl)piperazin-1-yl)propoxy)quinazolin-4-ylthio)phenyl) urea], for which, in the experiment on A375 cells, the concentration giving a half-maximal response (EC50) was 250 to 500 nM. For the same compound, in experiment [1], the IC50 is < 250 nM. For the same compound, the dissociation constant Kd at RAF kinases [2] fell in the range of 500 to 1000 nM; on RAF kinases [3], 250 to 500 nM.
On to `COc1cc2ncnc(Sc3cccc(NC(=O)Nc4cc(C(C)(C)C)on4)c3)c2cc1OCCN1CCC(CO)CC1` [Ex 66, 1-(5-tert-butylisoxazol-3-yl)-3-(3-(6-(2-(4-(hydroxymethyl)piperidin-1-yl)ethoxy)-7-methoxyquinazolin-4-ylthio)phenyl)urea], for which the concentration giving a half-maximal response (EC50) in the experiment on A375 cells is > 1000 nM. The IC50 in experiment [1] was < 250 nM. Moreover, the dissociation constant (Kd) on RAF kinases [2] and at RAF kinases [3] was 500 to 1000 nM in each case.
Turning to `COc1cc2ncnc(Sc3cccc(NC(=O)Nc4cc(C(C)(C)C)on4)c3)c2cc1OCCN1CCN(C)CC1` [Ex 67, 1-(5-tert-butylisoxazol-3-yl)-3-(3-(7-methoxy-6-(2-(4-methylpiperazin-1-yl)ethoxy)quinazolin-4-ylthio)phenyl)urea], the EC50 in the experiment on A375 cells is > 1000 nM. In experiment [1], the IC50 is < 250 nM. In addition, the Kd on RAF kinases [2] and on RAF kinases [3] was 250 to 500 nM throughout.
Turning to `COc1cc2ncnc(Sc3cccc(NC(=O)Nc4cc(C(C)(C)C)on4)c3)c2cc1OCCN1CCN(CCO)CC1` [Ex 68, 1-(5-tert-butylisoxazol-3-yl)-3-(3-(6-(2-(4-(2-hydroxyethyl)piperazin-1-yl)ethoxy)-7-methoxyquinazolin-4-ylthio)phenyl)urea], in the experiment with A375 cells, the EC50 lay in the range of 500 to 1000 nM. For the same compound, in experiment [1], the IC50 is < 250 nM. The dissociation constant (Kd) on RAF kinases [2] and on RAF kinases [3] was 250 to 500 nM each time.
For the compound `COc1cc2ncnc(Sc3cccc(NC(=O)Nc4cc(C(C)(C)C)on4)c3)c2cc1OCCN1CCN(S(C)(=O)=O)CC1` [Ex 69, 1-(5-tert-butylisoxazol-3-yl)-3-(3-(7-methoxy-6-(2-(4-(methylsulfonyl)piperazin-1-yl)ethoxy)quinazolin-4-ylthio)phenyl)urea], the EC50 with A375 cells lay in the range of 250 to 500 nM. For the same compound, the 50% inhibitory concentration (IC50) in experiment [1] was < 250 nM. Further, the equilibrium dissociation constant (Kd) at RAF kinases [2] and on RAF kinases [3] was 250 to 500 nM throughout.
For `COc1cc2c(Sc3cccc(NC(=O)Nc4cc(C(C)(C)C)on4)c3)ncnc2cc1OCCCN1CCN(C)CC1` [Ex 73, 1-(5-tert-butylisoxazol-3-yl)-3-(3-(6-methoxy-7-(3-(4-methylpiperazin-1-yl)propoxy)quinazolin-4-ylthio)phenyl)urea], the half-maximal effective concentration (EC50) in the experiment with A375 cells was 500 to 1000 nM. Also, in experiment [1], the concentration for half-maximal inhibition (IC50) is < 250 nM. For the same compound, the dissociation constant (Kd) on RAF kinases [2] and on RAF kinases [3] was 250 to 500 nM throughout.
On to `COc1cc2c(Sc3cccc(NC(=O)Nc4cc(C(C)(C)C)on4)c3)ncnc2cc1OCCCN1CCN(CCO)CC1` [Ex 75, 1-(5-tert-butylisoxazol-3-yl)-3-(3-(7-(3-(4-(2-hydroxyethyl)piperazin-1-yl)propoxy)-6-methoxyquinazolin-4-ylthio)phenyl)urea], for which the EC50 with A375 cells is > 1000 nM. Also, the IC50 in experiment [1] is < 250 nM. For the same compound, the Kd at RAF kinases [2] and at RAF kinases [3] was 250 to 500 nM in each case.
`COc1cc2c(Sc3cccc(NC(=O)Nc4cc(C(C)(C)C)on4)c3)ncnc2cc1OCCCN1CCCCC1` [Ex 76, 1-(5-tert-butylisoxazol-3-yl)-3-(3-(6-methoxy-7-(3-(piperidin-1-yl)propoxy)quinazolin-4-ylthio)phenyl)urea]: in the experiment on A375 cells, the EC50 was > 1000 nM. Besides, the IC50 in experiment [1] is < 250 nM. The dissociation constant (Kd) is 250 to 500 nM on RAF kinases [2] and 500 to 1000 nM at RAF kinases [3].
The matching figures for `COc1cc2c(Sc3cccc(NC(=O)Nc4cc(C(C)(C)C)on4)c3)ncnc2cc1OCCCN1CCN(S(C)(=O)=O)CC1` [Ex 77, 1-(5-tert-butylisoxazol-3-yl)-3-(3-(6-methoxy-7-(3-(4-(methylsulfonyl)piperazin-1-yl)propoxy)quinazolin-4-ylthio)phenyl)urea]: 250 to 500 nM, < 250 nM, 500 to 1000 nM and 500 to 1000 nM.
On to `COc1cc2c(Sc3cccc(NC(=O)Nc4cc(C(C)(C)C)on4)c3)ncnc2cc1OCCN1CCOCC1` [Ex 79, 1-(5-tert-butylisoxazol-3-yl)-3-(3-(6-methoxy-7-(2-morpholinoethoxy)quinazolin-4-ylthio)phenyl)urea], for which the 50% effective concentration (EC50) in the experiment with A375 cells is > 1000 nM. Further, the IC50 in experiment [1] is < 250 nM. The Kd at RAF kinases [2] and on RAF kinases [3] was 500 to 1000 nM each time.
For `COc1cc2c(Sc3cccc(NC(=O)Nc4cc(C(C)(C)C)on4)c3)ncnc2cc1OCCN1CCCCC1` [Ex 80, 1-(5-tert-butylisoxazol-3-yl)-3-(3-(6-methoxy-7-(2-(piperidin-1-yl)ethoxy)quinazolin-4-ylthio)phenyl)urea], the 50% effective concentration (EC50) in the experiment with A375 cells is > 1000 nM. The IC50 in experiment [1] lay in the range of 250 to 500 nM. In addition, the dissociation constant Kd on RAF kinases [2] and on RAF kinases [3] was 250 to 500 nM each time.

As a reminder, the EC50 is the concentration needed to bring the measured effect to its halfway point. The term IC50 denotes the concentration at which inhibition is half-maximal. As a reminder, the Kd is the free concentration of one partner at which half of the binding sites on the other are occupied at equilibrium, for simple one-to-one binding. High values mean lower affinity, low ones higher affinity.
